Experimental data reported in US20120172351A1, “NOVEL FUSED CYCLIC COMPOUND AND USE THEREOF” (priority 2009, published 2012).

target: T1, human derived GPR40 (Homo sapiens, UniProt O14842); experiment: Agonist action on human derived GPR40: change of intracellular calcium concentration in CHO cells (FLIPRtetra); format: cell-based; conditions: agonist activity of compound at 1 μM, relative to 10 μM γ linolenic acid as 100%, wave peak height; CHO cells stably expressing human GPR40
T1 construct: expressed in transfected cells
Protocol: The CHO cell lines that stably expressed human derived GPR40 were used for the determination of the agonist activity. Unless particularly specified, the CHO cell lines were cultured in an α-MEM medium (Wako Pure Chemical Industries, Ltd.) containing 10% dialyzed fetal bovine serum (TRA Thermo Electron).
The cells cultured almost to confluent on the day before assay were rinsed with PBS (Invitrogen), detached with 0.5 mM EDTA (Wako Pure Chemical Industries, Ltd.), and recovered by centrifugation. The obtained cells were counted, diluted to 2×10^5 cells per 1 mL medium, dispensed by 40 μL per well to a 384 well black clear bottomplate (PE Biosystems), and cultured overnight in a CO2 incubator. Various test compounds were added to CHO cells prepared as mentioned above, and change of intracellular calcium concentration was measured using FLIPRtetra (Molecular Device). For the measurement by this device, a Calcium 4 assay kit (Molecular Devices: R8142) was used.
First, fatty acid free BSA at the final concentration of 0.1% was added to the buffer attached to the kit to prepare an assay buffer. Using the assay buffer, a loading solution with Fluo4 was prepared such that the final concentration of fatty acid free BSA was 0.1% and the final concentration of probenecid was 625 μM. On the other hand, a test compound was diluted with the assay buffer to a given concentration, and dispensed to the polypropylene 384-well plate (sample plate). The medium was removed from the cell culture plate, and the loading solution with Fluo4 was dispensed by 25 μL. After culture in a CO2 incubator at 37° C. for 40 min, a sample plate and a cell plate were simultaneously set on the FLIPRtetra, various test compounds were added by 25 μL according to the program of the device, and change of intracellular calcium concentration was measured. The agonist activity of each compound at 1 μM was calculated as a relative activity value to the activity of 10 μM γ linolenic acid as 100% from the wave peak height.

T1 sequence (O14842 whole entry): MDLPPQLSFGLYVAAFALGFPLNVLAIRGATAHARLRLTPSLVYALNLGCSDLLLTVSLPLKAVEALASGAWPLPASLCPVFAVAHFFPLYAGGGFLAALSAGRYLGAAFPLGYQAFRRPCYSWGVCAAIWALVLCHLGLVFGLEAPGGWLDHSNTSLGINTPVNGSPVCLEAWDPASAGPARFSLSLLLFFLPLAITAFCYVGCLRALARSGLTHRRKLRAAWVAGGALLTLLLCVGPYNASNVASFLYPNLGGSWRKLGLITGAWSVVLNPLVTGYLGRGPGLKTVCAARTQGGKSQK

Row | Compound | activity (%)
1 | CCc1nc2ccc(Cl)cc2n1-c1cccc(CNc2ccc3c(c2)OC[C@H]3CC(=O)[O-])c1C.[Na+] [Example 173, sodium [(3S)-6-{[3-(6-chloro-2-ethyl-1H-benzimidazol-1-yl)-2-methylbenzyl]amino}-2,3-dihydro-1-benzofuran-3-yl]acetate] | 121
2 | CCc1nc2ccccc2n1-c1cccc2c1OC[C@H]2Nc1ccc2c(c1)OC[C@H]2CC(=O)[O-].[Na+] [Example 19, sodium [(3S)-6-{[(3S)-7-(2-ethyl-1H-benzimidazol-1-yl)-2,3-dihydro-1-benzofuran-3-yl]amino}-2,3-dihydro-1-benzofuran-3-yl]acetate] | 129
3 | O=C([O-])C[C@@H]1COc2cc(N[C@@H]3COc4c3cccc4N3CCOc4ccccc43)ccc21.[Na+] [Example 86, sodium [(3S)-6-{[(3S)-7-(2,3-dihydro-4H-1,4-benzooxazin-4-yl)-2,3-dihydro-1-benzofuran-3-yl]amino}-2,3-dihydro-1-benzofuran-3-yl]acetate] | 128
4 | CCc1nc2ccc(F)c(F)c2n1-c1cccc2c1OC[C@H]2Nc1ccc2c(c1)OC[C@H]2CC(=O)[O-].[Na+] [Example 31, sodium [(3S)-6-{[(3S)-7-(2-ethyl-6,7-difluoro-1H-benzimidazol-1-yl)-2,3-dihydro-1-benzofuran-3-yl]amino}-2,3-dihydro-1-benzofuran-3-yl]acetate] | 127
5 | Cc1nc(N2CCOCC2)nc(C)c1-c1cccc2c1OC[C@H]2Nc1ccc2c(c1)OC[C@H]2CC(=O)O [Example 77-2, [(3S)-6-({(3S)-7-[4,6-dimethyl-2-(morpholin-4-yl)pyrimidin-5-yl]-2,3-dihydro-1-benzofuran-3-yl}amino)-2,3-dihydro-1-benzofuran-3-yl]acetic acid] | 132

Continued, values first:

Row | activity (%) | Compound
6 | 121 | CCCN(c1ccc(F)cn1)c1cccc(CNc2ccc3c(c2)OC[C@H]3CC(=O)O)c1C [Example 232, [(3S)-6-({3-[(5-fluoropyridin-2-yl)(propyl)amino]-2-methylbenzyl}amino)-2,3-dihydro-1-benzofuran-3-yl]acetic acid]
7 | 123 | Cc1nc2ccc(OCC(F)(F)F)cc2n1-c1cccc2c1OC[C@H]2Nc1ccc2c(c1)OC[C@H]2CC(=O)[O-].[Na+] [Example 99, sodium [(3S)-6-({(3S)-7-[2-methyl-6-(2,2,2-trifluoroethoxy)-1H-benzimidazol-1-yl]-2,3-dihydro-1-benzofuran-3-yl}amino)-2,3-dihydro-1-benzofuran-3-yl]acetate]
8 | 111 | Cc1oc2ncccc2c1-c1cccc(CNc2ccc3c(c2)OC[C@H]3CC(=O)O)c1C [Example 223, [(3S)-6-{[2-methyl-3-(2-methylfuro[2,3-b]pyridin-3-yl)benzyl]amino}-2,3-dihydro-1-benzofuran-3-yl]acetic acid]
9 | 90 | COc1ccc2c(c1)nc(C1CC1)n2-c1cccc(CNc2ccc3c(c2)OC[C@H]3CC(=O)O)c1C [Example 149, [(3S)-6-{[3-(2-cyclopropyl-5-methoxy-1H-benzimidazol-1-yl)-2-methylbenzyl]amino}-2,3-dihydro-1-benzofuran-3-yl]acetic acid]
10 | 121 | Cc1nc(N2CCOCC2)nc(C)c1-c1cccc(CNc2ccc3c(c2)OC[C@H]3CC(=O)O)c1C [Example 242, 1,3-dihydroxy-2-(hydroxymethyl)propan-2-aminium [(3S)-6-({3[4,6-dimethyl-2-(morpholin-4-yl)pyrimidin-5-yl]-2-methylbenzyl}amino)-2,3-dihydro-1-benzofuran-3-yl]acetate]
11 | 124 | Cc1nc2ccccn2c1-c1cccc(CNc2ccc3c(c2)OC[C@H]3CC(=O)O)c1C [Example 201, [(3S)-6-{[2-methyl-3-(2-methylimidazo[1,2-a]pyridin-3-yl)benzyl]amino}-2,3-dihydro-1-benzofuran-3-yl]acetic acid]
